From patent EP4400508A1, “ACTIVE PEPTIDE AND USE THEREOF” (Harvest Biotech Co., Ltd, priority 2021, dated 2024)
No end group written: not given here.

System: Chicken Embryo
Test: Chicken embryo safety test (HET-CAM, SN/T 2329-2009), irritation score method
Settings: dose up to 500 ppm

Sequence: ESETRILLQ [EQ-9, ESETRILLQ]
- Irritation Classification (HET-CAM): non-irritant
- irritation score (IS) (HET-CAM): 0.35
- safety issue (FIG. 1): no safety issue
